Experimental findings from PubChem BioAssay (NCI) are described below.

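Cells were grown in 96-well plates and exposed to each compound for 48 hours at five concentrations; endpoints were interpolated linearly between bracketing concentrations, or set to the highest concentration if not reached. GI50: concentration for 50% inhibition of growth. Definition used: TGI = concentration required for complete inhibition of growth.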

Test systems include COLO 205 colon; DU-145 prostate; HS 578T breast; OVCAR-8 ovarian; PC-3 prostate; SK-OV-3 ovarian; SN12C renal; T-47D breast; U251 CNS; UACC-257 melanoma.
Holding throughout (assay): growth of human tumour cells (NCI), 48 h

As for `COc1cc(C2CC(c3ccccc3)=NN2C(C)=O)cc(OC)c1OC` (stereo not given), the GI50 was 2.92 µM with COLO 205 colon; 5.26 µM in the experiment on DU-145 prostate; 2.57 µM with HS 578T breast; 7.43 µM with OVCAR-8 ovarian; 3.97 µM with PC-3 prostate; 3.91 µM in the experiment on SK-OV-3 ovarian. The GI50 is 5.23 µM in the experiment on SN12C renal, 5.33 µM with T-47D breast, 3.93 µM in the experiment on U251 CNS and above 100 µM with UACC-257 melanoma. Also, the TGI in the experiment with COLO 205 colon is above 41 µM; with DU-145 prostate it was 77.3 µM; with HS 578T breast, 34.6 µM; in the experiment on OVCAR-8 ovarian, above 100 µM; in the experiment with PC-3 prostate, above 100 µM; in the experiment on SK-OV-3 ovarian it was above 100 µM. The TGI in the experiment on SN12C renal, with T-47D breast, in the experiment on U251 CNS and with UACC-257 melanoma was above 100 µM in each case.
In the case of `Cc1[nH]nc2ccc3nc(-c4ccc5[nH]ncc5c4)c4c(c3c12)CCCC4`, the GI50 in the experiment on COLO 205 colon was 1.09 µM; with DU-145 prostate it was 1.05 µM; with HS 578T breast, 1.34 µM; in the experiment with OVCAR-8 ovarian, 1.15 µM; in the experiment on PC-3 prostate, 2.86 µM; in the experiment on SK-OV-3 ovarian, 0.243 µM. Moreover, the GI50 in the experiment on SN12C renal is 2.09 µM; in the experiment with T-47D breast, 1.14 µM; in the experiment on U251 CNS, 0.92 µM; with UACC-257 melanoma it was 1.68 µM. In addition, the TGI was 10.8 µM in the experiment with COLO 205 colon; 12.2 µM in the experiment with DU-145 prostate; 12.5 µM with HS 578T breast; 13.2 µM with OVCAR-8 ovarian; 23.6 µM in the experiment with PC-3 prostate; 0.94 µM in the experiment with SK-OV-3 ovarian. Also, the TGI in the experiment on SN12C renal was 12.7 µM; with T-47D breast it was 8.22 µM; in the experiment on U251 CNS, 13.9 µM; in the experiment on UACC-257 melanoma, 6.63 µM.
For the compound `O=C(Cc1ccccc1)NC(c1ccc(Cl)cc1)c1c(O)ccc2ccccc12` (stereo not given), the GI50 in the experiment with COLO 205 colon is 1.98 µM; in the experiment on DU-145 prostate, 4.68 µM; in the experiment with HS 578T breast, 2.81 µM; in the experiment with OVCAR-8 ovarian, 3.56 µM; in the experiment with PC-3 prostate, 3.19 µM; in the experiment with SK-OV-3 ovarian, 3.01 µM. Moreover, the GI50 in the experiment on SN12C renal was 2.99 µM; in the experiment on T-47D breast, 3.65 µM; in the experiment on U251 CNS, 2.55 µM; with UACC-257 melanoma, 2.77 µM. The TGI came to 3.48 µM in the experiment with COLO 205 colon; 17 µM in the experiment on DU-145 prostate; 13.8 µM with HS 578T breast; 16.9 µM in the experiment on OVCAR-8 ovarian; 10.6 µM in the experiment on PC-3 prostate; 9.26 µM in the experiment with SK-OV-3 ovarian. Moreover, the TGI in the experiment with SN12C renal came to 11.5 µM; with T-47D breast it was 13.8 µM; in the experiment with U251 CNS, 6.94 µM; in the experiment on UACC-257 melanoma, 10.4 µM.
Turning to `COc1nc(N)nc2c1ncn2[C@@H]1O[C@H](CO)[C@@H](O)[C@@H]1O`, the GI50 in the experiment with COLO 205 colon, with DU-145 prostate, in the experiment with HS 578T breast, in the experiment with OVCAR-8 ovarian, in the experiment with PC-3 prostate and in the experiment on SK-OV-3 ovarian was above 100 µM in each case. For the same compound, the GI50 in the experiment on SN12C renal, in the experiment with T-47D breast, in the experiment with U251 CNS and in the experiment with UACC-257 melanoma was above 100 µM each time. For the same compound, the TGI with COLO 205 colon, in the experiment on DU-145 prostate, in the experiment with HS 578T breast, in the experiment with OVCAR-8 ovarian, in the experiment on PC-3 prostate and in the experiment on SK-OV-3 ovarian was above 100 µM each time. Moreover, the TGI in the experiment with SN12C renal, in the experiment on T-47D breast, with U251 CNS and in the experiment with UACC-257 melanoma was above 100 µM each time.
For `Cc1nn(-c2ccccc2)c2nc3c(nc12)C1=NCCN1C(c1ccc(Cl)cc1)N3` (stereo not given), the GI50 was 1.84 µM in the experiment with COLO 205 colon; 5.9 µM with DU-145 prostate; 3.1 µM in the experiment on HS 578T breast; 6.29 µM in the experiment with OVCAR-8 ovarian; 4.33 µM in the experiment with PC-3 prostate; 7.9 µM with SK-OV-3 ovarian. Further, the GI50 was 11.4 µM with SN12C renal, 1.74 µM with T-47D breast, 2.21 µM in the experiment on U251 CNS and 1.79 µM with UACC-257 melanoma. For the same compound, the TGI in the experiment on COLO 205 colon is 3.36 µM; with DU-145 prostate, 17.9 µM; with HS 578T breast, 12.8 µM; with OVCAR-8 ovarian, 21 µM; in the experiment on PC-3 prostate it was 18.3 µM; in the experiment with SK-OV-3 ovarian it was 19.4 µM. The TGI with SN12C renal is 25.2 µM; with T-47D breast it was 3.42 µM; with U251 CNS, 5.98 µM; in the experiment on UACC-257 melanoma, 3.49 µM.
As for `CCCC(=O)Nc1ccc2c(c1)CN1C(=O)c3ccccc3C1=N2`, the TGI in the experiment on COLO 205 colon, with DU-145 prostate, in the experiment on HS 578T breast, in the experiment on OVCAR-8 ovarian, with PC-3 prostate and in the experiment with SK-OV-3 ovarian was above 100 µM in each case. Further, the TGI in the experiment with SN12C renal, in the experiment on T-47D breast, in the experiment on U251 CNS and in the experiment on UACC-257 melanoma was above 100 µM each time.
Take `COc1ccc2c(c1)/C(=C\c1c(Cl)n(C)c3ccccc13)C(=O)N2`: the GI50 with COLO 205 colon is 0.721 µM; in the experiment with DU-145 prostate, 3.07 µM; in the experiment on HS 578T breast, 1.44 µM; in the experiment on OVCAR-8 ovarian, 1.89 µM; with PC-3 prostate it was 1.33 µM; in the experiment on SK-OV-3 ovarian, 0.86 µM. For the same compound, the GI50 was 2.57 µM with SN12C renal, 3.02 µM in the experiment on T-47D breast, 0.817 µM with U251 CNS and 1.87 µM in the experiment with UACC-257 melanoma. In addition, the TGI with COLO 205 colon was 4.36 µM; with DU-145 prostate it was 15 µM; in the experiment with HS 578T breast, 8.12 µM; in the experiment with OVCAR-8 ovarian, 11.9 µM; with PC-3 prostate, above 36.8 µM; in the experiment with SK-OV-3 ovarian it was 14.5 µM. For the same compound, the TGI in the experiment with SN12C renal was determined as 20.1 µM; with T-47D breast, 31.4 µM; in the experiment on U251 CNS it was 10.5 µM; in the experiment with UACC-257 melanoma, 13.3 µM.
As for `O=C(NCCNc1nccc(-c2c(-c3ccc(F)cc3)nc3sccn23)n1)c1ccccc1`, the GI50 was 1.84 µM with COLO 205 colon; 12.7 µM with DU-145 prostate; 20.4 µM with HS 578T breast; 5.95 µM with OVCAR-8 ovarian; 10.8 µM with PC-3 prostate; 12.5 µM in the experiment on SK-OV-3 ovarian. Besides, the GI50 in the experiment with SN12C renal was 6.52 µM; in the experiment on T-47D breast, 1.91 µM; in the experiment on U251 CNS, 8.57 µM; with UACC-257 melanoma, 14.3 µM. Besides, the TGI is 14.6 µM with COLO 205 colon; above 100 µM in the experiment with DU-145 prostate; above 100 µM in the experiment with HS 578T breast; above 100 µM in the experiment with OVCAR-8 ovarian; 89.2 µM with PC-3 prostate; 53.8 µM in the experiment on SK-OV-3 ovarian. Also, the TGI in the experiment on SN12C renal is 48.4 µM; with T-47D breast it was 20.9 µM; in the experiment on U251 CNS, above 100 µM; in the experiment on UACC-257 melanoma it was 41.1 µM.
